Results reported in patent US20240130367A1, “PLANT GROWTH PROMOTERS” (University of Durham, priority 2020, published 2024).

How the values were obtained:
plant = conditions: known calmodulin inhibitors; cited from earlier work
[1] = test system: Arabidopsis thaliana wild-type; test: Hypocotyl growth assay under reduced light; type: in vivo; conditions: 100 μM; for Hypocotyl growth promotion relative to A1 / Effect on hypocotyl growth in wild type: reduced light; for New length (cm): trials 1, 2, 3 and SAM each with own DMSO control
Description: (§1) Arabidopsis thaliana wild-type seeds were from laboratory stocks of Columbia (Col-0) and Landsberg erecta (Ler-0) accessions. Arabidopsis thaliana is a dicot. The mutants of gid1 (J. Griffiths, et al., Plant Cell, 2006, 18, 3399-3414) were obtained from Dr. Steve Thomas (Rothamsted Research, UK) and were in a Col-0 background, whilst the della quintuple mutant (S. H. Feng et al. Nature, 2008, 451: 475-479) and ga1-5 (I. Fridborg et al. Plant Cell, 1999, 11: 1019-1031) were in a Ler-0 background and was obtained from the Nottingham Arabidopsis Stock Centre (NASC). The A. thaliana line expressing RGA-GFP (A. L. Silverstone et al. The Plant Cell, 2001, 13: 1555-1565), Col-0 background was obtained from Prof. Keith Lindsey (Durham University, UK). Seeds were plated out 1×MS medium pH 5.8 (T. Murashige and F. Skoog (1962) Physiologia Plantarum 15: 473-497) in petri dishes with a concentration of either 0.8% or 1.2% (w/v) phytoagar for root and hypocotyl measurements, respectively. After sowing seeds were stratified on plates at 4° C. for a minimum of 48 h to achieve synchronous germination. Seedlings were grown for either 7 or 2 days for root and hypocotyl measurements, respectively, prior to treatment with chemicals. For hypocotyl measurements, seeds were sown on nylon mesh (acid resistant monofilament nylon filter mesh fabric; GZ, model number H20M). Seedling were grown in a Percival (CU-36L5D, CLF plant climatics, Emersacker, Germany) with a photoperiod of 16/8 h with a light intensity of either 150 μmol m^2 s^−1 or 50 μmol m^2 s^−1 for root and hypocotyl measurements, respectively, and a temperature of 20±1° C.
After growing as described above seedlings for root assays were transferred to 1.2% (w/v) agar plates containing each chemical at a final concentration of 100 μM (the addition of the chemicals was performed when media had cooled to 50° C. after autoclaving), with an equivalent concentration of DMSO as control. At this stage the positions of the root tips were marked on the petri dish. The plants were subsequently grown vertically and after a further 5 days images of the plates were scanned and the root growth that occurred during the 5 days on chemicals was measured using ImageJ software. 18 seedlings were measured for each treatment. For hypocotyl measurements the assay performed was adapted from de Lucas et al. (2008, supra). After growing seedlings as described above, the nylon mesh was transferred across to the plates containing chemical. The plants were then placed in vertical orientation for three days under reduced light intensity (by covering plates with 2 layers of 80 g·m^2 white paper) before the plates were scanned. The measurement of hypocotyl was done using ImageJ software. At least 15 seedlings were measured for each plate.
To determine the mechanism of A1 action via the GA/DELLA signaling pathway, the response of A1 in a series of GA synthesis/signalling mutants was investigated. For these assays the focus was on hypocotyl growth, because it is well established that DELLA can inhibit the binding of PIFs to their target promoter leading to a reduction in GA-regulated hypocotyl growth (A. Castillon, H. Shen and E. Huq (2007) Trends in Plant Science, 12: 514-521.; de Lucas et al. 2008, supra; S. H. Feng et al. 2008, supra. To establish the use of A1 in this assay, hypocotyl growth was first tested by growing the seedlings on agar plates containing A1, with GA and PAC used as positive and negative controls, respectively, for three days in reduced light conditions to achieve a balance between maximum and minimum hypocotyl growth. […] Having established the hypocotyl assay, DELLA-dependence of the A1 effect was then confirmed genetically. To test this, a mutant line that lacks all DELLA (GAI, RGA, RGL1, RGL2 and RGL3) function was used.
The effect of additional compounds on hypocotyl growth was investigated using the same methods as described above (100 μM of each compound was used). […]

[2] = test system: Arabidopsis thaliana wild-type; test: Root growth assay, seedlings on agar plates containing chemical; type: in vivo; conditions: 100 μM; for Root growth activity relative to A1: 7-day old seedlings, 5 days
Method: Arabidopsis thaliana wild-type seeds were from laboratory stocks of Columbia (Col-0) and Landsberg erecta (Ler-0) accessions. […] Seeds were plated out 1×MS medium pH 5.8 (T. Murashige and F. Skoog (1962) Physiologia Plantarum 15: 473-497) in petri dishes with a concentration of either 0.8% or 1.2% (w/v) phytoagar for root and hypocotyl measurements, respectively. After sowing seeds were stratified on plates at 4° C. for a minimum of 48 h to achieve synchronous germination. Seedlings were grown for either 7 or 2 days for root and hypocotyl measurements, respectively, prior to treatment with chemicals. […] Seedling were grown in a Percival (CU-36L5D, CLF plant climatics, Emersacker, Germany) with a photoperiod of 16/8 h with a light intensity of either 150 μmol m^2 s^−1 or 50 μmol m^2 s^−1 for root and hypocotyl measurements, respectively, and a temperature of 20±1° C.
The effect of the A1 analogues on root and hypocotyl growth was investigated. In order to allow a direct comparison with eW5, the concentration used in these assays was 100 μM. The root growth assay was performed by treating the 7-day old seedlings on chemical plates for 5 days.

RGA-GFP = test: DELLA degradation: confocal imaging of RGA-GFP fluorescence in roots; type: in vivo, Arabidopsis thaliana; conditions: 100 μM; for GFP fluorescence / stability of DELLA protein in roots: A1 imaged after 2 and 24 hours, PAC applied 48 hours before
Description: as §1
Confocal microscopy was performed using a Leica SP5 CLSM FLIM FCCS (Leica Microsystems, Wetzlar, Germany). GFP:RGA seeds were germinated and grown on 1.2% MS vertically for 7 days, and then incubated in chemical solution (at the final concentration of 100 μM) for 2 and 24 hours before being analyzed. […] The excitation wavelength of the argon laser was 488 nm and the emission was detected using a bypass filter of 495-550 nm. […]

della quintuple mutant = test: Hypocotyl growth assay in della quintuple mutant; type: in vivo, Arabidopsis thaliana
Description: (§2) Arabidopsis thaliana wild-type seeds were from laboratory stocks of Columbia (Col-0) and Landsberg erecta (Ler-0) accessions. Arabidopsis thaliana is a dicot. The mutants of gid1 (J. Griffiths, et al., Plant Cell, 2006, 18, 3399-3414) were obtained from Dr. Steve Thomas (Rothamsted Research, UK) and were in a Col-0 background, whilst the della quintuple mutant (S. H. Feng et al. Nature, 2008, 451: 475-479) and ga1-5 (I. Fridborg et al. Plant Cell, 1999, 11: 1019-1031) were in a Ler-0 background and was obtained from the Nottingham Arabidopsis Stock Centre (NASC). The A. thaliana line expressing RGA-GFP (A. L. Silverstone et al. The Plant Cell, 2001, 13: 1555-1565), Col-0 background was obtained from Prof. Keith Lindsey (Durham University, UK). […]
(§3) After growing as described above seedlings for root assays were transferred to 1.2% (w/v) agar plates containing each chemical at a final concentration of 100 μM (the addition of the chemicals was performed when media had cooled to 50° C. after autoclaving), with an equivalent concentration of DMSO as control. […] The plants were subsequently grown vertically and after a further 5 days images of the plates were scanned and the root growth that occurred during the 5 days on chemicals was measured using ImageJ software. 18 seedlings were measured for each treatment. […] At least 15 seedlings were measured for each plate. […]

gid1 double mutants = test: Hypocotyl growth assay in GA receptor gid1 double mutants; type: in vivo, Arabidopsis thaliana
Description: as §2, §3

ga1-5 mutant = test: Hypocotyl growth assay in GA biosynthesis mutant ga1-5; type: in vivo, Arabidopsis thaliana; conditions: 100 μM, three days
Description: as §2, §3

Arabidopsis thaliana = test: Fresh and dry weight measurements of treated seedlings; type: in vivo; conditions: 5 days chemical treatment
Method: Leaves and roots fresh weights of 12 days old seedlings, that were subjected to 5 days chemical treatment as described above, were measured. Dry weights were recorded after placing the plant material in oven at 65° C. for 3 days. The measurements were performed on 15 seedlings for each treatment.
Having discovered the root growth-promoting properties of A1, we wished to establish if the effects were limited to the roots, or whether A1 could also promote growth of shoot tissue. We were also interested to see if the effect was on fresh weight, dry weight or both. To investigate this, plants were treated with A1, divided into shoot and root material and the fresh and dry weight recorded.

maize = test: Growth of a monocot on application of A1; type: in vivo
[3] = hypocotyl, relative to the DMSO control of the same trial

## NCCCCCCNS(=O)(=O)c1cccc2c(Cl)cccc12 [Compound W7, N-(6-Aminohexyl)-5-chloro-1-naphthalenesulfonamide]
plant
  Effect on plant growth: inhibit plant growth

## Cc1ccc(CS(=O)(=O)NCCN)cc1.Cl [Compound E4, Alpha-p-xylenesulfonylethylene Diamine Hydrochloric Acid Salt]
[1]
  Hypocotyl growth promotion relative to A1: less hypocotyl growth promotion relative to A1
[2]
  Root growth activity relative to A1: higher activity than A1

## Cl.NCCNS(=O)(=O)Cc1ccccc1 [Compound E3, Alpha-toluenesulfonylethylene Diamine Hydrochloric Acid Salt]
[1]
  Hypocotyl growth promotion relative to A1: less hypocotyl growth promotion relative to A1
[2]
  Root growth activity relative to A1: higher activity than A1

## CC(C)(C)[C@@H](O)[C@@H](Cc1ccc(Cl)cc1)n1cncn1 (racemic) [PAC, paclobutrazol, reference compound]
RGA-GFP
  GFP fluorescence / stability of DELLA protein in roots: stabilized the DELLA protein

## Cl.NCCNS(=O)(=O)c1cccc2ccccc12 [eW5, 2′-Amino-1′-(1-naphthylsulfonylamino)Ethane Hydrochloric Acid Salt]
Della quintuple mutant
  Effect on hypocotyl growth in mutant lacking all DELLA function: no promotion of hypocotyl growth was observed
gid1 double mutants
  Effect on hypocotyl length in gid1 double mutants compared with wild type: the effect was reduced in the mutants
[1]; three days
  Effect on hypocotyl growth in wild type: increased the hypocotyl length
[1]; three days, listed as A1
  Effect on hypocotyl growth in wild type: stimulated hypocotyl growth in a manner very similar to GA
[1]; hypocotyl, three days, in cm
  New Length: 0.9253
[1]; hypocotyl, relative to DMSO control
  Relative growth (cm): 0.3497
ga1-5 mutant
  Recovery of hypocotyl elongation in ga1-5: could not recover hypocotyl elongation
RGA-GFP
  Time after which the DELLA degradation response could be observed: 2 h
  GFP fluorescence / stability of DELLA protein in roots: reduced GFP fluorescence
Arabidopsis thaliana; 12 days old seedlings
  Fresh weight of roots and shoots: increased
Arabidopsis thaliana; dried at 65° C. for 3 days
  Dry:fresh weight ratio in roots and shoots: increased
[2]; 5 days on chemical
  Effect on root growth compared to DMSO control: promoted root growth
maize
  Root, stem and leaf growth in maize: Improved root, stem (hypocotyl in particular) and leaf growth

## CN(CCN)S(=O)(=O)c1cccc2ccccc12.Cl [Compound E5, N-methyl-N-naphthylsulfonyl-1,2-ethanediamine Hydrochloric Acid Salt]
[1]
  Hypocotyl growth promotion relative to A1: biggest effect
[2]
  Root growth activity relative to A1: biggest effect

## O=S(=O)(NCCO)c1cccc2ccccc12 [JAR88, N-(2-hydroxyethyl)naphthalene-1-sulfonamide]
[1]; hypocotyl, three days
  New length (cm): 0.2827 cm
[1]; [3]
  Relative growth (cm): −0.2975

## CCOC(=O)CN(CCN)S(=O)(=O)c1cccc2ccccc12.Cl [SAM3, ethyl 2″-[N-(2′-aminoethyl)naphthalene-1-sulfonamido]acetate Hydrogen Chloride]
[1]; hypocotyl, three days
  New length (cm): 0.272 cm
[1]; [3]
  Relative growth (cm): 0.3807

## CCCCCOc1ccc(S(=O)(=O)NCCN)c2ccccc12.Cl [JAR70, N-(2′-aminoethyl)-4-pentoxynaphthalene-1-sulfonamide Hydrogen Chloride]
[1]; hypocotyl, three days
  New length (cm): 0.173 cm
[1]; [3]
  Relative growth (cm): −0.2822

## NCCCCCCNS(=O)(=O)c1cccc2ccccc12 [Compound W5, N-(6-Aminohexyl)-1-naphthalenesulfonamide]
plant
  Effect on plant growth: inhibit plant growth
